Measurements from patent US10485814B2, “Nicotinamide riboside analogs and pharmaceutical compositions and uses thereof” (GlaxoSmithKline Intellectual Property (No. 2) Limited, priority 2014, dated 2019).
Entries after “also recorded” stand apart in the source; their conditions may differ.

What was measured:
HaCaT cells = test: H2O2-induced reactive oxygen species (ROS) in HaCaT cells (CellROX deep red); type: cell-based, human
Experimental: HaCaT cells were grown as described in example 23 and were seeded in 96-well plates (Nunc™ black with optical bottom, Thermo Fisher Scientific, Inc., Waltham, Mass.) with a density at 2×10^4 cells per well and 100 μl medium in each well, and grown overnight before treatments. Stock solutions of NRH and other test compounds were prepared and diluted to 2× of final treatment concentrations in DMEM medium in 96-well storage plate as indicated in the FIG. 11. HaCaT Cells were treated in triplicates by adding 100 μl of diluted solutions of test compounds (2×) to each well containing 100 μl medium already. Cells were incubated in the presence of test compounds for 3 hrs. At the end of 3 hr incubation, cells were washed once with 200 μl DPBS with Ca^++ and Mg^++ (Life Technologies) and then fed with 100 μl DMEM medium each well containing H2O2 at 250 μM (as a ROS (reactive oxygen species) inducer, Sigma). After 30 min incubation, cells were washed once with 200 μl DPBS with Ca^++ and Mg^++ and CellROX deep red reagent (2.5 mM stock solution, Life Technologies) was added to the medium to a final concentration of 5 μM. After 1 hr incubation at 37° C., 5% CO2, Cells were washed for 3 times with DPBS, fluorescence signal was read at Ex. 640 nm and Em. 665 nm in Biotek Synergy H4 microplate reader (BioTek, Winooski, Vt.). Untreated cells were served as controls (normalized to 1). All the treated samples were normalized to the untreated control.

C57BL/6 DIO mice = test: NRH triacetate efficacy in DIO (Diet-Induced Obesity) mice; type: in vivo
Experimental: C57BL/6 DIO mice and lean controls were purchased from Taconic (Hudson, N.Y.). All mice were fed Purina 5001 chow ad libitum from weaning until 6 weeks of age, then DIO mice were fed a diet containing 60% fat, ad libitum. When the mice were 18 weeks old, dosing was begun. Mice were segregated into groups of 8, with group A receiving vehicle (1:1 (v:v) PEG400: water), group B receiving 100 mg/kg nicotinamide riboside hydride triacetate as a solution in vehicle, group C receiving 500 mg/kg nicotinamide riboside hydride triacetate as a solution in vehicle, and group D (chow-fed lean control mice) receiving vehicle. The mice were dosed once per day via oral gavage for six weeks. After three weeks of dosing, body weights, post-prandial blood glucose, and post-prandial blood insulin levels were measured using commercially available kits. After four weeks of dosing, fasted blood glucose and fasted blood insulin levels were measured. Nicotinamide riboside and NAD levels were measured after four weeks of dosing, using the same extraction and LCMS protocol as described in Example 21 with NAD giving an LC retention time=2.5 min, MS Q1 peak, m/z=664(M+H)+, Q3 peak, m/z=428 (M-Cl1H13N2O4). Statistical analysis was performed using one-way ANOVA, and Dunnett's post test.
Chow-fed mice were used as non-diabetic controls.

[1] = Gravimetric Vapor Sorption (GVS); type: physicochemical; details: 90% RH, 25° C.
Experimental: Gravimetric Vapor Sorption (GVS): Samples were analyzed using a VTI corporation (now part of TA Instruments) SGA-100 with Cahn microbalance equipped with quartz sample and reference pans. Samples were dried in the SGA-100 under dry nitrogen for 5 hours at 25° C. followed by a moisture absorption step ramp from 5% relative humidity (RH) to 95% or 90% RH followed by a desorption step ramp back to 5% or 10% RH (all steps at 25° C.). The samples were held at each % RH step for 4 hours.

[2] = Plasma hydrolysis of nicotinamide riboside analogs to NR (incubation with rat plasma, LC/MS/MS); type: in vitro ADME; details: 10 mM, incubated 30 min at 37° C.
Experimental: Compounds were diluted with rat plasma to a concentration of 10 millimolar (mM). Samples were incubated for 30 min at 37° C., taking 50 microL aliquots for analysis at 0 and 30 min. The aliquots were loaded onto a deep 96 well plate, then 350 microL of 0.1% (v:v) formic acid in acetonitrile was added to each well. The plate was covered and sealed to prevent evaporation, then it was placed on an orbital plate shaker set to 800-900 rps for 5-10 minutes. Next, the plate was centrifuged at around 3000 rpm for 5 min to provide a clear supernatant. For LC/MS/MS analysis, 200 microL of supernatant from each well was transferred onto a clean plate, which was subsequently capped and placed into an autosampler.
(§1) LCMS Conditions. For each well, a 10 microL sample was injected via autosampler onto a Chromolithe Performance, RP-18e (100×4.6 mm) column, and eluted with a binary gradient. Solvent A=0.1% formic acid, 0.1% N,N-dibutyl-N-methylamine (DBME) in 2 mM aqueous ammonium acetate (1:1:1000 v:v:v). Solvent B=0.1% formic acid in acetonitrile (1:1000 v:v). The solvent gradient was as follows: 0-0.22 min, 95:5 A:B; […], 95:5 A:B to 30:70 A:B (linear gradient); 5.05-6.05 min, 30:70 A:B; 6.05-6.60 min, 30:70 A:B to 95:5 A:B (linear gradient); 6.60-7.15 min, 95:5 A:B; stop elution at 7.15 min. Nicotinamide riboside eluted at approximately 1.7 min. A triple-quadrupole mass spectrometer was employed for peak identification. The identity of the analyte was confirmed by MS observation of a Q1 peak at m/z=255 (M)^+, and a Q3 peak at m/z=123.1 (M-C5H8O4)^+.
The results are shown in FIG. 3, with the release of free nicotinamide riboside measured using by HPLC-MS at 0, 30, and 60 minute time points (columns 5, 6, and 7 of table shown in FIG. 3). For each of NR esters in Table 3, except nicotinamide riboside tribenzoate, nicotinamide riboside was detected at the 30 minute time point.

[3] = Plasma/blood nicotinamide riboside levels in orally dosed mice (LCMS); type: in vivo; details: oral gavage 500 mg/kg in PBS; for plasma nicotinamide riboside levels: both 2 h and 6 h post-dose
Experimental: Compounds were suspended in phospho-buffered saline (PBS) solution at 125 mg/mL. Eight mice were dosed via oral gavage with study compound at 500 mg/kg, (20 mg compound in 160 microL of PBS for a 40 g mouse). Four mice were euthanized via CO2 asphyxiation at 2 h post-dose, then the remaining four were euthanized at 6 h post-dose, and blood was collected immediately following euthanasia via cardiac puncture, orbital bleed, or tail vein nick. Approximately 600 microL of blood was collected from each mouse. The blood samples were diluted with 5 volumes of 70% (1% sulfosalicylic acid/1 microM DTE/10 microM CD-38 inhibitor)/30% (37% 10 mM aqueous ammonium bicarbonate/63% acetonitrile). The mixture was vortexed, then centrifuged at 3000 rpm for 10 min at 4° C. to give a transparent supernatant. A 10 microL portion of the supernatant was analyzed by LCMS, using the conditions below.
as §1, with “injected” for “injected via autosampler”, “A:B;” for “A:B; stop”, “elution was stopped” for “elution”, “(M)+,” for “(M)^+,”
In the bar graph in FIG. 5, compounds are shown on the x-axis, and comparative LCMS signal is shown on the y-axis; with each compound dosed in mice at 500 mg study compound per 1000 g mouse as a solution or suspension in phospho-buffered saline solution (PBS) (A=blank control (PBS), B=nicotinic acid riboside hydride ethyl ester triacetate, C=Nicotinamide riboside hydride triisobutyrate, D=Nicotinamide riboside hydride tri-n-butyrate, E=Nicotinamide riboside hydride tripropionate, F=nicotinamide riboside hydride tribenzoate). As shown, samples were taken 2 hours and 6 hours post dose. Also as shown, samples were kept cold (4° C.) or at room temperature (approximately 23° C.) before analysis.

[4] = 100 and 500 mg/kg once per day orally, after four weeks of dosing
[5] = oral gavage once per day 100 or 500 mg/kg, post-prandial, after three weeks of dosing

Structure (SMILES)	conversion to free nicotinamide riboside [2]	plasma nicotinamide riboside levels [3]	other results
OO [Example H2O2]			level of ROS (HaCaT cells; 250 μM H2O2, 30 min, normalized to untreated control): ~6 fold
OCCc1ccc(O)c(O)c1 [Hydroxyterosol]			H2O2-induced ROS (HaCaT cells; 3 hr pre-incubation then 250 μM H2O2, Hydroxyterosol 0.005%, niacinamide 4.5 mM, NRH several concentrations): reduced H2O2-induced ROS
CC(=O)OC[C@H]1O[C@@H](N2C=CCC(C(N)=O)=C2)[C@H](OC(C)=O)[C@@H]1OC(C)=O [NRH triacetate, (2R,3R,4R,5R)-2-(acetoxymethyl)-5-(3-carbamoylpyridin-1(4H)-yl)tetrahydrofuran-3,4-diyl diacetate]	converted to free nicotinamide riboside to a significant degree		blood NAD levels (C57BL/6 DIO mice; [4]): rose in a dose-dependent manner; also recorded: rise in a NRH-triacetate dose-dependent manner; blood nicotinamide riboside levels (C57BL/6 DIO mice; [4]): rose in a dose-dependent manner; also recorded: rise in a NRH-triacetate dose-dependent manner; blood glucose levels (C57BL/6 DIO mice; [5]): reduced; blood insulin levels (C57BL/6 DIO mice; [5]): reduced; GVS weight gain from the dried state [1]: greater than 12%
NC(=O)C1=CN([C@@H]2O[C@H](COC(=O)c3ccccc3)[C@@H](OC(=O)c3ccccc3)[C@H]2OC(=O)c2ccccc2)C=CC1 [NRH tribenzoate, (2R,3R,4R,5R)-2-((benzoyloxy)methyl)-5-(3-carbamoylpyridin-1(4H)-yl)tetrahydrofuran-3,4-diyl dibenzoate]	not significantly converted to free nicotinamide riboside		nicotinamide riboside level ([3]; 2 h post-dose): only a very modest increase
CCCC(=O)OC[C@H]1O[C@@H](N2C=CCC(C(N)=O)=C2)[C@H](OC(=O)CCC)[C@@H]1OC(=O)CCC [NRH tributyrate, (2R,3R,4R,5R)-2-((butyryloxy)methyl)-5-(3-carbamoylpyridin-1(4H)-yl)tetrahydrofuran-3,4-diyl dibutyrate]	converted to free nicotinamide riboside to a significant degree	raised plasma nicotinamide riboside levels substantially	
CC(C)C(=O)OC[C@H]1O[C@@H](N2C=CCC(C(N)=O)=C2)[C@H](OC(=O)C(C)C)[C@@H]1OC(=O)C(C)C [NRH triisobutyrate, (2R,3R,4R,5R)-2-(3-carbamoylpyridin-1(4H)-yl)-5-((isobutyryloxy)methyl)-tetrahydrofuran-3,4-diyl bis(2-methylpropanoate)]	converted to free nicotinamide riboside to a significant degree	raised plasma nicotinamide riboside levels substantially	
CCC(=O)OC[C@H]1O[C@@H](N2C=CCC(C(N)=O)=C2)[C@H](OC(=O)CC)[C@@H]1OC(=O)CC [NRH tripropionate, (2R,3R,4R,5R)-2-(3-carbamoylpyridin-1(4H)-yl)-5 ((propionyloxy)methyl) tetrahydrofuran-3,4-diyl dipropionate]	converted to free nicotinamide riboside to a significant degree	raised plasma nicotinamide riboside levels substantially	
